In US20110098492A1, “CLEANING COMPOSITIONS CONTAINING MID-RANGE ALKOXYLATES” (priority 2008, published 2011):

Experiments:
[1] = Surface tension and critical micelle concentration (Wilhelmy plate); type: physicochemical; settings: for Surface Tension: 0.1 wt % in water; for Critical Micelle Concentration: in de-ionized water
Experimental: B) Surface Tension and Critical Micelle Concentration (CMC) Measurement. For this test the surface tension of a surfactant-water solution is measured while incrementally adding the surfactant to de-ionized water. Results are measured in terms of dyne/centimeters using a Wilhelmy plate. Results are recorded versus surfactant concentration. The Critical Micelle Concentration is the point at which an increase in surfactant concentration no longer results in a change in surface tension.

[2] = Ross-Miles foam height test (ASTM D1173); type: physicochemical; settings: for Ross Miles Foam Height, millimeters, Initial: Initial (0 sec)
Experimental: A) Ross-Miles Foam Height Test: This test is carried out according to the protocol of ASTM […].

[3] = Gel range in water at 23 C; type: physicochemical; parameters: key: L = Liquid; G = Gel; TL = Thick Liquid
Experimental: One way the industry expresses a tendency of a surfactant to cause gels is a “gel range.” A typical gel range describes a percentage of samples that form gels, out of a number of samples, each having increasing surfactant concentration. […] A sample forms a gel when it is non-pourable for at least five seconds at 23° centigrade (° C.) when its container is inverted 180° so the container's open spout or mouth faces down. For many applications, a surfactant ideally has no gel range.
D) Gel range: Ten surfactant solutions are made using 0%, 10%, 20%, 30%, 40%, 50%, 60%, 70%, 80%, 90% water. […] The test is run at 23 C.

[4] = Pour point test (ASTM D97); type: physicochemical
Experimental: C) Pour Point Test: This test is carried out according to the protocol of ASTM Test D97.

[5] = test system: Daphna magna; assay: 48-hour acute toxicity to Daphnia; type: in vivo
Text: The study procedures and test methods were based on the recommendations of the following guidelines: […]

[6] = test system: Desmondesmus subspicatus; assay: Fresh water algal growth inhibition test (OECD 201); type: cell-based; settings: growth rate
Text: Organization for Economic Cooperation and Development (OECD): OECD Guidelines for the Testing of Chemicals, “Freshwater Alga and Cyanobacteria, Growth Inhibition Test”, Procedure 201, adopted 23 Mar. 2006; European Economic Community (EEC): […] OECD Guidelines for the Testing of Chemicals, “Freshwater Alga and Cyanobacteria, Growth Inhibition Test”, Procedure 201, adopted 23 Mar. 2006; European Economic Community (EEC): […]

[7] = Cleaning of cross-linked triglycerides (Gardner scrubber, soiled vinyl tile); parameters: key to Arbitrary Gray Value: mean gray value of tile image (ImageJ); settings: for Arbitrary Gray Value: 120 back-and-forth strokes, higher = better cleaning; for cleaning of cross-linked triglycerides (in words): aqueous solution, compared with NP-9 / APEs
Experimental: Test panels coated with mixtures of triglycerides and cross-linked triglycerides were prepared and evaluated using the following procedure. Cobalt Naphthenate was used as a catalyst to accelerate the oxidation of vegetable oil to give a hard varnish. Carbon black is added to the varnish to enable easy visual comparison of the ability to clean the cross-linked triglyceride from the surface.
Substrate Panels: White Vinyl Floor Tile: Tarket Corporation Azrock™ VS304-3 (6913) cut to 4¼×4¼ inch (to fit the Gardner Linear Motion Scrubber).
Soil Formulation: 100 grams Canola Oil (Food Grade, 100%, Kroger Co. Cincinnati, Ohio 45202); 2 grams Acetylene Carbon Black (Cat #39724, Alfa Aesar; Surface area=74 sq m/g); 20 grams drying agent: Cobalt Naphthenate Solution (Aldrich Cat #54,457-4, CAS #61789-51-3) (Comes as a 6% solution in petroleum solvent); Oven: Convection oven set at 160° F.
Scrubbing Tester: Gardco washability & Wear Tester; Linear Motion Test Equipment; Model D12-V Cat #WA-2164 (Paul N. Gardner Company, Inc. 316 N.E. First Street, Pompano, Beach, Fla. 33060.
Sponges: “Do-It” Cellulose Sponge, 1⅝ in thick, cut to 3″×4″. Manufactured by Bloch/New England for HWI, Fort Wayne, Ind. 46801;
Paint Brushes: Economy Chip Brush 1 Inch. www.lgsourcing.com Model #0106; Item #103407 obtained from Lowes, Inc. L. G. Sourcing, Inc. P.O. Box 1535 North Wilkseboro, N.C. 28659
Reflectance Meter: HunterLab ColorQuest XE
Prepare a stock solution by mixing 98 grams of canola oil (food grade) with 2.0 g acetylene-based carbon black (Cat #39724, Alfa Aesar; Surface area=74 sq m/g). Mix with a disperser at 2000 rpm for 15 min. (We used a Caframo Model BDC 3030 with a 0.50 dispersing blade).
Add 20.0 grams Cobalt Naphthenate Solution and mix well (by hand, using a glass stir rod).
Place 1.6 grams soil per 4×4 inch tile.
Paint to a thin film using a clean 1-inch economy brush. Use several strokes to get to an even coating. Use a clean, dry brush for each application. (After the application, each brush can be cleaned with acetone, dried, and then re-used).
Place in a convection oven set at 160 F for 16 hours. We place the panels in an oven at 4:00 p.m, and then remove the panels at 8:00 a.m. the next morning. Let the panels cool for 1 hour.
Use the panels within 10 days
Place a panel in the Gardner Scrubber
[…] (We use 5.0 grams surfactant diluted to 500 mL water).
Prepare a sponge by rinsing several times in cold tap water. Completely squeeze out the sponge by hand.
After each test, rinse out the sponge 15-20 times (by repeated sorption and squeezing) until there is no noticeable surfactant solution left (usually indicated by a lack of foam).
Pour 500 mL of surfactant solution into a beaker
Place the sponge into the beaker—allowing it to soak up as much surfactant as possible.
Place the sponge into the Gardner Scrubber.
Pour the remaining liquid (approx 400 mL) over the test panel in the scrubber. There should be enough liquid to just cover the test panel.
Program the scrubber to perform 120 back-and-forth strokes (for a total of 240 linear strokes). We define each back-and-forth stroke as “1 stroke”
Remove the panel rinse with tap water
Clean the Gardner scrubber by rinsing with tap water.
Clean the sponge by squeezing it out under tap water 20-30 times until clean.
Remove excess water from the sponge by squeezing as much liquid out as possible.
After the panel is dry, either take pictures (for visual comparison of cleaning) or measure the reflectance using the Xyy mode of a Hunter Colorimeter. Alternatively, the mean gray value can be obtained by taking a picture of the tiles and processing computer image with ImageJ™ software, which is distributed freely by the National Institute of Health (nih.gov).

[8] = test system: Sicklepod; assay: Greenhouse herbicide adjuvant efficacy with glyphosate; type: in vivo; settings: adjuvant 0.25% v/v in spray, visual injury at 18 DAA
Experimental: Efficacy of Examples 7 and 8 as adjuvants in formulated herbicides is compared to commercially available herbicide packages. Greenhouse field testing is completed. A 480 g ae/L (acid equivalent per liter) formulation of glyphosate isopropylamine with no adjuvants is added to spray vials. These aliquots are diluted to a final volume of 60 ml with tap water, and appropriate amounts of adjuvants are added to the spray solution. The Examples 7 and 8 series are tested at 0.25% v/v in the final spray solution. Treatment rates are: 200, 400, and 600 g ae/ha (“ha” means hectare) and each treatment is replicated three times. Treatments are applied with a tracksprayer. The sprayer utilizes an 8002E spray nozzle, spray pressure of 262 kPa pressure and speed of 2.2 mph to deliver 140 L/Ha. The nozzle height is 46 cm above the pots. Percent visual injury assessments are made at 18 DAA (days after application) on a scale of 0 to 100% as compared to the untreated control plants (where 0 is equal to no injury and 100 is equal to complete death of the plant). Results are shown in Table 10 as % Control of Sicklepod with Glyphosate compared to commercial herbicides.

[9] = Formula stability with LAS, sodium citrate and water; type: physicochemical; parameters: key to Formula stability: S = Stable; U = Unstable
Text: When mixed with dodecyl benzene sulfonic acid (sodium salt), and sodium citrate in water, the surfactants of the present invention show enhanced formula stability relative to conventional surfactants.

[10] = Cloud point; type: physicochemical

2EH(PO)2(EO)4 [Example 1]
Surface Tension [1]: 35 dyne/centimeters
Critical Micelle Concentration [1]: 3300 ppm
Ross Miles Foam Height, millimeters, 5 Minutes [2]: 5 millimeters
Ross Miles Foam Height, millimeters, Initial [2]: 110 millimeters

2EH(PO)3(EO)6.8 [Example 2]
Gel Range, Percent Surfactant in Water at 23 C. ([3]; 10% surfactant in water): L
Gel Range, Percent Surfactant in Water at 23 C. ([3]; 20% surfactant in water): L
Gel Range, Percent Surfactant in Water at 23 C. ([3]; 30% surfactant in water): L
Gel Range, Percent Surfactant in Water at 23 C. ([3]; 40% surfactant in water): L
Gel Range, Percent Surfactant in Water at 23 C. ([3]; 50% surfactant in water): L
Gel Range, Percent Surfactant in Water at 23 C. ([3]; 60% surfactant in water): L
Gel Range, Percent Surfactant in Water at 23 C. ([3]; 70% surfactant in water): L
Gel Range, Percent Surfactant in Water at 23 C. ([3]; 80% surfactant in water): L
Gel Range, Percent Surfactant in Water at 23 C. ([3]; 90% surfactant in water): L
Pour Point [4]: 50 ° F.
Surface Tension [1]: 32 dyne/centimeters
Critical Micelle Concentration [1]: 2400 ppm
Ross Miles Foam Height, millimeters, 5 Minutes [2]: 5 millimeters
Ross Miles Foam Height, millimeters, Initial [2]: 115 millimeters

2EH(PO)5(EO)3 [Example 6]
48-hour Acute Toxicity to Daphna magna (EC50-50 hour) [5]: 33.6 µg/mL
Fresh Water algal growth inhibition test with Desmondesmus subspicatus ErC50/0-3 [6]: 31.9 mg/L

2EH(PO)5(EO)6 [Example 7]
Arbitrary Gray Value ([7]; 0.5% by weight in water): 106
Arbitrary Gray Value ([7]; 1% by weight in water): 179
cleaning of cross-linked triglycerides (in words) [7]: performs as well as NP-9
cleaning of cross-linked triglycerides (in words) ([7]; listed as 2EH(PO)5(EO)6): performs as well and NP-9
% Control of Sicklepod with Glyphosate ([8]; 200 G/ha glyphosate): 66.7%
% Control of Sicklepod with Glyphosate ([8]; 400 G/ha glyphosate): 81.7%
% Control of Sicklepod with Glyphosate ([8]; 600 G/ha glyphosate): 98.3%

2EH(PO)5(EO)9 [Example 8]
Arbitrary Gray Value ([7]; 1% by weight in water): 128
48-hour Acute Toxicity to Daphna magna (EC50-50 hour) [5]: >100 µg/mL
% Control of Sicklepod with Glyphosate ([8]; 200 G/ha glyphosate): 31.7%
% Control of Sicklepod with Glyphosate ([8]; 400 G/ha glyphosate): 73.3%
% Control of Sicklepod with Glyphosate ([8]; 600 G/ha glyphosate): 75.0%
Fresh Water algal growth inhibition test with Desmondesmus subspicatus ErC50/0-3 [6]: 97.7 mg/L

2EH(PO)9(EO)9 [Example 4]
Gel Range, Percent Surfactant in Water at 23 C. ([3]; 10% surfactant in water): L
Gel Range, Percent Surfactant in Water at 23 C. ([3]; 20% surfactant in water): L
Gel Range, Percent Surfactant in Water at 23 C. ([3]; 30% surfactant in water): L
Gel Range, Percent Surfactant in Water at 23 C. ([3]; 40% surfactant in water): TL
Gel Range, Percent Surfactant in Water at 23 C. ([3]; 50% surfactant in water): G
Gel Range, Percent Surfactant in Water at 23 C. ([3]; 60% surfactant in water): G
Gel Range, Percent Surfactant in Water at 23 C. ([3]; 70% surfactant in water): G
Gel Range, Percent Surfactant in Water at 23 C. ([3]; 80% surfactant in water): G
Gel Range, Percent Surfactant in Water at 23 C. ([3]; 90% surfactant in water): L
Pour Point [4]: 37 ° F.
Surface Tension [1]: 30 dyne/centimeters
Critical Micelle Concentration [1]: 400 ppm
Ross Miles Foam Height, millimeters, 5 Minutes [2]: 5 millimeters
Ross Miles Foam Height, millimeters, Initial [2]: 50 millimeters

2EH(PO)11(EO)11 [Example 5]
Gel Range, Percent Surfactant in Water at 23 C. ([3]; 10% surfactant in water): L
Gel Range, Percent Surfactant in Water at 23 C. ([3]; 20% surfactant in water): L
Gel Range, Percent Surfactant in Water at 23 C. ([3]; 30% surfactant in water): L
Gel Range, Percent Surfactant in Water at 23 C. ([3]; 40% surfactant in water): G
Gel Range, Percent Surfactant in Water at 23 C. ([3]; 50% surfactant in water): G
Gel Range, Percent Surfactant in Water at 23 C. ([3]; 60% surfactant in water): G
Gel Range, Percent Surfactant in Water at 23 C. ([3]; 70% surfactant in water): G
Gel Range, Percent Surfactant in Water at 23 C. ([3]; 80% surfactant in water): G
Gel Range, Percent Surfactant in Water at 23 C. ([3]; 90% surfactant in water): L
Pour Point [4]: 36 ° F.
Formula stability ([9]; 15% LAS/0% Na Cit in water): S
Formula stability ([9]; 15% LAS/1% Na Cit in water): S
Formula stability ([9]; 15% LAS/2% Na Cit in water): S
Formula stability ([9]; 15% LAS/4% Na Cit in water): U
formula stability (in words) ([9]; cleaning formulations, without hydrotrope): stable
Surface Tension [1]: 30 dyne/centimeters
Critical Micelle Concentration [1]: 300 ppm
Ross Miles Foam Height, millimeters, 5 Minutes [2]: 15 millimeters
Ross Miles Foam Height, millimeters, Initial [2]: 75 millimeters

C8-16(PO)2.5(EO)5 [reference compound]
Arbitrary Gray Value ([7]; 0.5% by weight in water): 48

C9(BO)1(EO)5
cloud point [10]: 21.4 C

C9(BO)1(EO)6
cloud point [10]: 38.5 C

C9(BO)1(EO)7 [Example 9]
Arbitrary Gray Value ([7]; 1% by weight in water): 121
cloud point [10]: 53.9 C
48-hour Acute Toxicity to Daphna magna (EC50-50 hour) [5]: 6.2 µg/mL
Fresh Water algal growth inhibition test with Desmondesmus subspicatus ErC50/0-3 [6]: 21 mg/L

C9(PO)4(EO)5.5
cloud point [10]: 31.0 C

C9(PO)4(EO)6.8
cloud point [10]: 43.0 C

C9(PO)4(EO)8 [Example 10]
cloud point [10]: 55.3 C
48-hour Acute Toxicity to Daphna magna (EC50-50 hour) [5]: 29.2 µg/mL
Fresh Water algal growth inhibition test with Desmondesmus subspicatus ErC50/0-3 [6]: 26 mg/L

C12-14(EO)5 [reference compound]
Arbitrary Gray Value ([7]; 1% by weight in water): 68
